Columns and labels:
[1] = tested on: E. coli ATCC 25922; test: microbe, parasite or virus in culture; assay type: cell-based
Protocol: (§1) Experiments were performed with two biological replicates.

[2] = tested on: MDR E. coli B2 (mcr-1 + blaNDM-5); test: microbe, parasite or virus in culture; assay type: cell-based
Protocol: as §1

[3] = tested on: S. aureus 215 (cfr + LZD^R); test: microbe, parasite or virus in culture; assay type: cell-based; conditions: S. aureus 215 (cfr + LZD^R)
Protocol: as §1

[4] = tested on: S. aureus ATCC 29213; test: microbe, parasite or virus in culture; assay type: cell-based
Protocol: as §1

[5] = tested on: S. enteritidis ATCC 13076; test: microbe, parasite or virus in culture; assay type: cell-based
Protocol: as §1

[6] = tested on: E. coli 1A34; test: MIC, tigecycline-resistant clinical isolate; assay type: cell-based; conditions: E. coli 1A34, anal swab, tigecycline-resistant clinical isolate; broth micro-dilution
Protocol: as §1

[7] = tested on: E. coli 1C1; test: MIC, tigecycline-resistant clinical isolate; assay type: cell-based; conditions: E. coli 1C1, dust, tigecycline-resistant clinical isolate; broth micro-dilution
Protocol: as §1

[8] = tested on: E. coli 1F16; test: MIC, tigecycline-resistant clinical isolate; assay type: cell-based; conditions: E. coli 1F16, feces, tigecycline-resistant clinical isolate; broth micro-dilution
Protocol: as §1

[9] = tested on: E. coli 1F31; test: MIC, tigecycline-resistant clinical isolate; assay type: cell-based; conditions: E. coli 1F31, tigecycline-resistant clinical isolate; broth micro-dilution
Protocol: as §1

[10] = tested on: E. coli 1N28; test: MIC, tigecycline-resistant clinical isolate; assay type: cell-based; conditions: E. coli 1N28, nasal swab, tigecycline-resistant clinical isolate; broth micro-dilution
Protocol: as §1

[11] = tested on: E. coli 1N31; test: MIC, tigecycline-resistant clinical isolate; assay type: cell-based; conditions: E. coli 1N31, tigecycline-resistant clinical isolate; broth micro-dilution
Protocol: as §1

[12] = tested on: Shigella 1F25; test: MIC, tigecycline-resistant clinical isolate; assay type: cell-based; conditions: Shigella 1F25, feces, broth micro-dilution
Protocol: as §1

[13] = tested on: E. coli 1F28; assay type: cell-based; conditions: E. coli 1F28 and 1A34; 10 mM in MHB
[14] = Hydrophobicity by RP-HPLC (percent acetonitrile at elution); assay type: physicochemical; conditions: acetonitrile in water, 0.1% (v/v) TFA, higher percent = higher hydrophobicity
Protocol: All peptides used in this study were synthesized by GL Biochem (Shanghai, China) using a solid phase peptide synthesis (SPPS) method, and their accurate molecular weights were determined by matrix-assisted laser desorption/ionization time-of-flight mass spectrometry (MALDI-TOF MS). The peptide purity (>95%) and retention time were determined by reversed-phase high-performance liquid chromatography (HPLC).
A collection of tryptophan-rich linear peptides on the basis of MP196 (RWRWRW-NH2) was designed by increasing peptide length or positive charge or hydrophobicity, replacing amino acids and/or N-terminal acetylation (Table 1). These peptides were synthesized via solid-phase peptide synthesis (SPPS), purified by reverse-phase high-performance liquid chromatography (RP-HPLC) (Figure S1) and validated by matrix-assisted laser desorption/ionization time-of-flight mass spectrometry (MALDI-TOF MS) (Figure S2). […] All engineered peptides belong to cationic AMPs, with 3 or 6 net charges. The percentage of acetonitrile at RP-HPLC elution was regarded as a relative measure of peptides’ hydrophobicity. […] The hydrophobicity order was listed as follows: WRK-12 > WL-9 > WR-6 > WV-9 > KW-6 > WKK-12 > WR-12 > MP196 > WK-6.

[15] = tested on: E. coli 1F28; test: Thermal and pH stability (residual antibacterial activity by MIC); assay type: physicochemical; conditions: residual MIC against E. coli 1F28
Description: Thermal, pH and proteolytic stability.

[16] = tested on: pepsin; conditions: pepsin 10 mg/mL, 1 h preincubation; residual MIC against E. coli 1F28
Protocol: Thermal, pH and proteolytic stability. WRK-12 was preincubated at different temperatures (from 25 to 121 °C), pH (from 2 to 12) or proteases (pepsin, trypsin and papain, final concentration 10 mg/mL) for 1 h. Samples after pH treatment were readjusted to pH = 7.2 to determine the residual antibacterial activity by MIC tests. Samples after proteases treatment were heated at 80 °C for 30 min, and centrifuged at 13,000× g for 30 min to precipitate proteases, and the residual antibacterial activity of supernatants was tested by MIC analysis.

[17] = tested on: E. coli 1F28; test: LPS, lipids or NAC inhibition assay (MIC); assay type: cell-based
Description: Lipopolysaccharides (LPS), lipids or NAC inhibition assay.

[18] = tested on: E. coli 1F28; test: ROS measurements (DCFH-DA); assay type: cell-based; conditions: 0 to 128 μg/mL, 60 min
Protocol: 2′,7′-Dichlorodihydrofluorescein diacetate (DCFH-DA, 10 μM) was incubated with E. coli 1F28 cells for 30 min. After washing with 0.01 M PBS, the probed cells were mixed with WRK-12 (0 to 128 μg/mL) or colistin (128 μg/mL) for 60 min. The ROS levels were assessed by monitoring the fluorescence intensity (λexcitation = 488 nm, λemission = 525 nm) using a Microplate reader (Tecan, Männedorf, Switzerland).

[19] = tested on: E. coli 1F28 biofilm; test: Prevention of biofilm formation (crystal violet); assay type: cell-based; conditions: 24 h
Protocol: The prevention of biofilm formation was assessed as described previously. Briefly, bacteria (1 × 10^5 CFUs per mL) were exposed to WRK-12 solutions (with final concentrations ranging from 0.25 to 32 μg/mL). As an untreated control, bacteria were exposed to MHB without drugs. After 24 h incubation at 37 °C in a humidified atmosphere, planktonic bacteria were removed by phosphate buffer solution (PBS). Biofilms were fixed with methanol for 15 min, then sucked out the fixative and air dry naturally. Then, biofilms were stained with 0.1% crystal violet for 15 min, washed and dried naturally. Finally, 33% acetic acid was used to dissolve crystal violet. The optical density at 570 nm was determined as a measure of biofilm mass.

[20] = in 0.01 M PBS or water; compared among four active AMPs

Ac-WRLRWKTRWRLK-NH2 [WRK-12]
MBC ([1]; ATCC 25922, 4 h): 8 µg/mL
MIC ([1]; ATCC 25922, 18 h): 4 µg/mL
MBC ([2]; MDR B2 (mcr-1 + blaNDM-5, 4 h)): 4 µg/mL
MIC decrease relative to WL-9 ([2]; MDR E. coli B2, insertion of three positive amino acids in WL-9): 4 fold
MIC ([3]; broth micro-dilution CLSI 2018, MHB, 18 h, 37 °C): 2 µg/mL
MBC ([3]; lowest concentration killing 99.9%, plated on MHA): 2 µg/mL
MBC ([4]; ATCC 29213, 4 h): 4 µg/mL
MIC ([4]; ATCC 29213, 18 h): 4 µg/mL
MBC ([5]; ATCC 13076, 4 h): 4 µg/mL
MIC ([5]; ATCC 13076, 18 h): 4 µg/mL
MIC [6]: 2 µg/mL
MIC [7]: 4 µg/mL
MIC [8]: 4 µg/mL
MIC [9]: 4 µg/mL
MIC [10]: 8 µg/mL
MIC [11]: 16 µg/mL
MIC [12]: 8 µg/mL
activity in the presence of monovalent cations (Na^+ and K^+) [13]: not any loss of activity
H (hydrophobicity, percent of acetonitrile at HPLC elution) [14]: 36.513 percent acetonitrile
activity reduction after thermal treatment ([15]; 121 °C, 1 h): 50%
activity reduction after pH treatment ([15]; alkaline environment pH = 12, 1 h, readjusted to pH 7.2): 50%
remaining antibacterial activity after pH treatment ([15]; pH 2 to 10 for 1 h, readjusted to pH 7.2): completely retained its activity
remaining antibacterial activity after thermal treatment ([15]; treatment under 100 °C for 1 h): completely retained its activity
proteolytic stability [16]: resistant
MIC increase with exogenous CL ([17]; 16 μg/mL CL, E. coli 1F28): 16 fold
MIC increase with exogenous PG ([17]; 16 μg/mL PG, E. coli 1F28): 16 fold
effect of exogenous LPS on antibacterial activity ([17]; LPS from E. coli O111:B4, 0 to 128 μg/mL, MIC against E. coli 1F28, chequerboard broth microdilution): weakened WRK-12 activity in a dose-dependent manner
MIC increase with ROS scavenger NAC ([17]; NAC 2.5 mM, E. coli 1F28, three independent experiments): 6 fold
effect of exogenous PE on antibacterial activity ([17]; PE 0 to 16 μg/mL, E. coli 1F28): mildly impaired WRK-12 activity
ROS production, DCFH-DA fluorescence [18]: triggered the production of ROS in a concentration-dependent manner
inhibition of biofilm formation ([19]; 0.5 μg/mL, 37 °C, crystal violet OD570): significant inhibition effect
biofilm mass ([19]; 2 μg/mL or higher, crystal violet staining): drastically reduced
solubility [20]: highest solubility

From publication PMC7564829, “Potent Broad-Spectrum Antibacterial Activity of Amphiphilic Peptides against Multidrug-Resistant Bacteria” (Microorganisms, 2020)
